Entries after “also recorded” stand apart in the source; their conditions may differ.
Experiments:
VEGF-A [1] = assay: VEGF-A mRNA in ablated rabbit corneas, ex vivo organ culture; settings: ablated rabbit corneas ex vivo, 25, 50 or 100 μM, 18 h
Protocol: The central 6 mm diameter area of corneas of twelve fresh rabbit globes (Pelfreeze) was ablated to a total depth of 155 microns using a Nidek excimer laser in phototherapeutic keratectomy mode. Ablated corneas were then surgically dissected from the rabbit globes using sterile scalpel and forceps, grasping only the scleral rims and not the clear cornea. The corneas were cultured in DMEM/F-12 1:1 (Thermo Fisher) containing 40 mM HEPES, 10% FBS, 0.01% dextran 40 (Tokyo Chemical Industry, Co., Ltd.) and 0.025% chondroitin sulfate (Chem-Impex International, Inc.) in 6-well plates. Twelve corneas were randomly distributed into four groups (three corneas in each group): DMSO, 25 μM, 50 μM or 100 μM apratyramide. […]
The central scar-like tissue from each cornea was collected using an 8 mm punch biopsy. […] The purified cDNA was then quantified using nanodrop and used to generate a standard curve. Serial 10-fold dilutions of the quantified cDNA amplicon were subjected to RT-qPCR using SYBR Select Master Mix (Applied Biosystems). […] The mass-normalized Ct values for the apratyramide treatment groups and DMSO control group (n=3 biological replicates per group) were analyzed by a one-way ANOVA (α=0.05, Microsoft Excel 2010, Analysis Tool Pack) followed by Tukey's HSD post hoc test manually calculated in Excel 2010 (FIG. 8).

bFGF = bFGF transcript level in HaCaT cells (RT-qPCR); type: cell-based, human; settings: 16 h
Protocol: (§1) HaCaT cells were seeded in 6-well plates at a density of 2×10^5 per well and incubated further for 24 h in supplement-free medium prior to treatment. RNA was isolated at 3, 12 or 16 h post treatment using the RNeasy mini kit (QIAGEN, Valencia, Calif.). Total RNA was quantified using NanoDrop 2000. From 2 μg of total RNA, cDNA synthesis was done using SuperScript II Reverse Transcriptase (Invitrogen, Carlsbad, Calif.) and oligo (dT) (Invitrogen).
(§2) qPCR after reverse transcription (RT-qPCR) was performed on a 25 μL reaction solution containing a 0.3 μL aliquot of cDNA, 12.5 μL of TaqMan gene expression assay mix, 1.25 μL of probes, and 11 μL RNase-free water. qPCR was carried out on an ABI 7300 sequence detection system using the thermocycler program: 2 min at 50° C., 10 min at 95° C., and 15 s at 95° C. (40 cycles) and 1 min at 60° C. Each experiment was performed in triplicate. VEGF-A (Hs00900055_m1), PDGFB (Hs00266645_m1) and bFGF (Hs00966522_m1) were used as target genes, while GAPDH (Hs02758991_g1) was used as endogenous control. Graphs and data analysis were performed using the Prism software and analyzed using unpaired t test.

HaCaT cells [2] = assay: Cell viability assay (MTT), HaCaT; type: cell-based, human; settings: 24 h
Protocol: (§3) Human keratinocyte HaCaT cells and human colon cancer HCT116 cells were cultured in Dulbecco's modified Eagle's medium (DMEM) supplemented with 10% fetal bovine serum at 37° C. humidified air and 5% CO2. Human normal colon (CCD-18Co) cells (ATCC) were cultured in Eagle's minimal essential medium (EMEM) supplemented with 10% fetal bovine serum at 37° C. humidified air and 5% CO2. Human Umbilical Vein Endothelial Cells (HUVEC, cat #CC-2519, Lonza) were cultured in EGM (Lonza cat #CC-3124) under the same condition.
Cells were seeded in a 96-well clear bottom plate, and 24 h later cells were treated with various concentrations of the apratyramide or solvent control (DMSO). […] Nonlinear regression analysis was carried out using GraphPad Prism software for IC50 value calculations.

VEGF-A [3] = assay: Measurement of human VEGF-A secretion from HaCaT cells (AlphaLISA); type: cell-based; settings: 24 h
Protocol: as §3
HaCaT cells were seeded in a 96-well clear bottom plate. Cells were treated with various concentrations of apratyramide or solvent control (DMSO). After 24 h incubation, culture supernatants were collected for detection of VEGF-A using AlphaLISA kits (PerkinElmer, Waltham, Mass.) following the manufacturer's instruction. Briefly, acceptor bead and anti-VEGF-A antibody were incubated with the supernatants for 60 min, donor beads were added later and incubated for another 30 min. Signal was detected using Envision (PerkinElmer). Levels of VEGF-A (pg/mL) were calculated using a standard curve and then normalized based on cell numbers.

PDGFB = PDGFB transcript level in HaCaT cells (RT-qPCR); type: cell-based, human; settings: 16 h
Protocol: as §1, §2

VEGF-A [4] = assay: VEGF-A transcript level in HaCaT cells (RT-qPCR); type: cell-based, human; settings: for VEGF-A mRNA level induction: 30 μM; for increase of VEGF-A transcript levels: 16 h
Protocol: as §3
as §1, with “RNA was isolated at 3, 12 or 16 h post treatment using the RNeasy mini kit (QIAGEN, Valencia, Calif.).” left out
as §2

CCD-18Co cells = assay: Cell viability assay (MTT), CCD-18Co; type: cell-based, human; settings: 48 h
Protocol: as §3
(§4) Cells were seeded in a 96-well clear bottom plate, and 24 h later cells were treated with various concentrations of the apratyramide or solvent control (DMSO). After 48 h of incubation, cell viability was detected using MTT according to the manufacturer's instructions (Promega, Madison, Wis.). Nonlinear regression analysis was carried out using GraphPad Prism software for IC50 value calculations.

HCT116 cells = assay: Cell viability assay (MTT), HCT116; type: cell-based, human; settings: 48 h
Protocol: as §3, §4

HUVECs = assay: In vitro angiogenesis assay (matrigel, HUVECs, HaCaT conditioned medium); type: cell-based, human; settings: HUVECs 14 h, vs CM-DMSO
Protocol: HaCaT cells were seeded in 12-well plates in complete growth medium the day before treatment. The next day, the medium was replaced with fresh medium followed by the treatment of 1 or solvent control. After 24 h or incubation, the conditioned medium was collected for the in vitro angiogenesis assay.
HUVECs (Lonza) were used at passage 4 for this assay. In vitro Angiogenesis Assay Kit (Chemicon) was used according to the manufacturer's recommendation. Briefly, an ice-cold mixture of ECMatrix was transferred into a precooled 96-well plate. After the matrix solution had solidified (>1 h incubation at 37° C., 10,000 cells were mixed with the CM or EGM with or without the presence of VEGF-A protein, 100 ng/mL and plated into each well. After incubation at 37° C. for 14 h, images were captured for each well using a Nikon inverted microscope equipped with NIS-Elements software. Branch point counting was used as quantification method. Three random microscope view-fields were counted and the number of branch points was averaged for each well. Branch point for each group was calculated by averaging eight replicates from two independent experiments.

ATF4 = ATF4 transcript (microarray) and protein (immunoblot) in HaCaT cells; type: cell-based, human
Protocol: (§5) HaCaT cells were seeded in 6-well clear bottom plate the day before treatment. The next day, cells were treated with 1 or solvent control (DMSO). 24 h later, whole cell lysates were collected using PhosphoSafe buffer (EMD Chemicals, Inc, Gibbstown, N.J.). Protein concentrations were measured with the BCA Protein Assay kit (Thermo Fisher Scientific, Rockford, Ill.). Lysates containing equal amounts of protein were separated by SDS polyacrylamide gel electrophoresis (4-12%), transferred to polyvinylidene difluoride membranes, probed with primary and secondary antibodies, and detected with the SuperSignal West Femto Maximum Sensitivity Substrate (Thermo Fisher Scientific). BIP, IRE1, β-actin and secondary anti-mouse and rabbit antibodies were from Cell Signaling Technology, Inc (Danvers, Mass.). ATF4 and ORP150 antibodies were obtained from Santa Cruz (Calif.).
(§6) RNA was analyzed using a NanoDrop spectrophotometer and Agilent 2100 Bioanalyzer to determine the RNA concentration and quality, respectively. RNA samples were processed using the GeneChip WT PLUS Reagent Kit (Affymetrix, Santa Clara, Calif.) according to the manufacturer's instruction. In brief, 250 ng of RNA were used for cDNA synthesis by reverse transcription, and the cDNA was utilized as a template for the biotin-labeled RNA prepared by in vitro transcription reaction. […]

ORP150 = ORP150 transcript (microarray) and protein (immunoblot) in HaCaT cells; type: cell-based, human
Protocol: as §5, §6

VEGF-A [5] = assay: VEGF-A transcript level in HCT116 cells (RT-qPCR); type: cell-based, human; settings: 16 h
Protocol: as §3, §2

IRE1 = IRE1 transcript (microarray) and protein (immunoblot) in HaCaT cells; type: cell-based, human
Protocol: as §5, §6

HaCaT cells [6] = assay: Transcriptome profiling of HaCaT cells (Human Transcriptome Array 2.0, IPA); type: cell-based
Protocol: as §1
as §6, with “reaction. The labeled RNA was further purified, fragmented, and hybridized with rotation at 45° C. for 16 h to the GeneChip™ Human Transcriptome Array 2.0. The arrays were washed and stained using the GeneChip Hybridization Wash and Stain kit on an Affymetrix Fluidics Station 450. The chips were scanned using a GeneChip 7G Scanner.” for “reaction.”

Q: What does the source list for `CC[C@H](C)[C@@H](OC(=O)[C@H](Cc1ccc(OC)cc1)N(C)C)C(=O)N[C@H](C(=O)N(C)[C@@H](Cc1ccc(O)cc1)C(=O)N(C)[C@@H](Cc1ccc(O)cc1)C(=O)OC)C(C)C` [Compound 1, Apratyramide]?
A: VEGF-A mRNA in the cornea (VEGF-A [1]): dose-dependent increase; bFGF transcript level (bFGF): stimulated; cytotoxicity (HaCaT cells [2]; 31.6 μM): without causing cytotoxicity; cell viability (HaCaT cells [2]; 50 μM): Around ninety-percent; increase of VEGF-A secretion (VEGF-A [3]; 31.6 μM): 1.3 fold; increase of VEGF-A secretion (VEGF-A [3]; 50 μM): 1.5 fold; PDGFB transcript level (PDGFB): stimulated; VEGF-A mRNA level induction (VEGF-A [4]; 4 h): 1.7 fold; VEGF-A mRNA level induction (VEGF-A [4]; 12 h): greater induction effect; increase of VEGF-A transcript levels (VEGF-A [4]; 31.6 μM): 5 fold; increase of VEGF-A transcript levels (VEGF-A [4]; 50 μM): 7 fold; effects on cell viability (CCD-18Co cells): negligible effects; cytotoxicity (antiproliferative effect) (HCT116 cells): minimal cytotoxicity; angiogenesis (tube-like structure formation) with conditioned medium (HUVECs; HaCaT culture treated with 30 μM for 24 h): rescued; angiogenesis (tube-like structure formation) with conditioned medium (HUVECs; HaCaT culture treated with 50 μM for 24 h): rescued; ATF4 transcript and protein levels (ATF4): up-regulated; also recorded: activated; ORP150 transcript and protein levels (ORP150): up-regulated; VEGF-A transcript level (VEGF-A [5]): up-regulated; VEGF-A transcript levels (VEGF-A [5]; fifty micro-molar): doubled; IRE1 transcript and protein levels (IRE1): up-regulated; VEGF-A in microarray (HaCaT cells [6]; 30 μM, 12 h): one of the most up-regulated genes; microRNAs in microarray (HaCaT cells [6]; 12 h treatment): down-regulation of several microRNAs
